Earlier results as cited in patent US11154585B2, “Orodispersible film composition comprising enalapril for the treatment of hypertension in a pediatric population” (PHARMATHEN S.A., priority 2017, dated 2021).
Structures can show the parent of a compound that is named as a salt. Where two headings read alike, the source gives them in different places.

Solubility (alcohol): soluble
Solubility (methanol and dimethylformamide): freely soluble
Solubility (nonpolar organic solvents): practically insoluble
Solubility (semi polar organic solvents): slightly soluble
Solubility (water): sparingly soluble
SMILES: CCOC(=O)[C@H](CCc1ccccc1)N[C@@H](C)C(=O)N1CCC[C@H]1C(=O)O [Enalapril maleate]
